Counter-ions that a name gives are not always drawn. Like-named read-outs stand apart in the source and are kept apart here.
Tests used:
MYB mRNA = test: RT-qPCR splicing assay, MYB mRNA canonical (CJ) and alternative (AJ) junction; type: cell-based, human; conditions: Homo sapiens; for AC50: MYB alternative junction mRNA, read-out: MYB AJ (increase in AJ mRNA, AC50)
Method in brief: (§1)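 Junction-specific RT-qPCR read-out: CJ and AJ isoform levels, housekeeper-normalized (GAPDH/GUSB/PPIA), ΔΔCt vs DMSO, converted to RQ then % response. Cells: A673 (DMEM/10% FBS, adhered 24 h) or K562 (IMDM/10% FBS). Compound 11-pt 3-fold, top 10 uM, 24 h, 37 °C.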

K562 cells = test: Cell Titer Glo 2.0 cell viability (toxicity) assay, K562; conditions: 500 cells/well, 72 hours
SMN2 mRNA = test: RT-qPCR splicing assay, SMN2 mRNA; type: cell-based, human; conditions: Homo sapiens, canonical junction qPCR panel, Table 4; read-out: SMN2 IC50 (decrease in CJ mRNA levels)
Method in brief: as §1

[1] = MYB canonical junction mRNA, RT-qPCR, read-out: MYB CJ (decrease in CJ mRNA levels, IC50)
[2] = canonical junction qPCR panel, Table 4, read-out: MYB IC50 (decrease in CJ mRNA levels)

Structure (SMILES)	IC50 (MYB mRNA; [1]) [nM]	IC50 (MYB mRNA; [2]) [nM]	IC50 (SMN2 mRNA) [nM]	AC50 (MYB mRNA; RT-qPCR) [nM]	Effect of Exemplary Compounds on Cell Viability, K562 (K562 cells)
C[C@@H]1CN(c2ccc3nc(-c4cc5cn(C)nc5c(F)c4O)nc(-c4nccs4)c3c2)C[C@H](C)N1 [Compound 732, 5-{6-[(3R,5S)-3,5-dimethylpiperazin-1-yl]-4-(1,3-thiazol-2-yl)quinazolin-2-yl}-7-fluoro-2-methylindazol-6-ol]	1000 to 10000	1000 to 10000	100 to 1000	> 10000	B (B represents 100-1000 nM)
CNC(=O)c1nc(-c2cc3cn(C)nc3cc2O)nc2ccc(N3CCC(N(C)C)CC3)cc12 [Compound 742, 6-[4-(dimethylamino)piperidin-1-yl]-2-(6-hydroxy-2-methylindazol-5-yl)-N-methylquinazoline-4-carboxamide]	100 to 1000	100 to 1000	< 100	100 to 1000	A (A represents <100 nM)
C[C@H]1CN(c2ccc3nc(-c4cc5cn(C)nc5c(F)c4O)ncc3c2)C[C@H](C)N1 [Compound 744, 5-{6-[(3S,5S)-3,5-dimethylpiperazin-1-yl]quinazolin-2-yl}-7-fluoro-2-methylindazol-6-ol]	< 100	< 100	< 100	< 100	A (A represents <100 nM)
Cn1cc2cc(-c3ncc4cc(N5CCC(N6CCC6)CC5)ccc4n3)c(O)c(F)c2n1 [Compound 750, 5-{6-[4-(azetidin-1-yl)piperidin-1-yl]quinazolin-2-yl}-7-fluoro-2-methylindazol-6-ol]	< 100	< 100	< 100	100 to 1000	B (B represents 100-1000 nM)
C[C@@H]1CN(c2ccc3nc(-c4cc5cn(C)nc5cc4O)ncc3c2)C[C@H](C)N1 [Compound 751, 5-{6-[(3R,5S)-3,5-dimethylpiperazin-1-yl]quinazolin-2-yl}-2-methylindazol-6-ol hydrochloride]	100 to 1000	100 to 1000	< 100	100 to 1000	B (B represents 100-1000 nM)
C[C@H]1CN(c2ccc3nc(-c4cc5cn(C)nc5cc4O)ncc3c2)C[C@H](C)N1 [Compound 752, 5-{6-[(3S,5S)-3,5-dimethylpiperazin-1-yl]quinazolin-2-yl}-2-methylindazol-6-ol]	< 100	< 100	< 100	< 100	B (B represents 100-1000 nM)
C[C@@H]1CN(c2ccc3nc(-c4cc5cn(C)nc5cc4O)ncc3c2)C[C@@H](C)N1 [Compound 753, 5-{6-[(3R,5R)-3,5-dimethylpiperazin-1-yl]quinazolin-2-yl}-2-methylindazol-6-ol]	100 to 1000	100 to 1000	< 100	100 to 1000	A (A represents <100 nM)

Second part, led by results:

IC50 (MYB mRNA; [1]) [nM]	IC50 (MYB mRNA; [2]) [nM]	IC50 (SMN2 mRNA) [nM]	Structure (SMILES)	AC50 (MYB mRNA; RT-qPCR) [nM]	Effect of Exemplary Compounds on Cell Viability, K562 (K562 cells)
< 100	< 100	< 100	CNC(=O)c1nc(-c2cc3cn(C)nc3c(F)c2O)nc2ccc(N3CC[C@@H](NC)C3)cc12 [Compound 729, 2-(7-fluoro-6-hydroxy-2-methylindazol-5-yl)-N-methyl-6-[(3R)-3-(methylamino)pyrrolidin-1-yl]quinazoline-4-carboxamide]	< 100	A (A represents <100 nM)
100 to 1000	100 to 1000	< 100	C[C@@H]1CN(c2ccc3nc(-c4cc5cn(C)nc5c(F)c4O)nc(C(=O)NCCO)c3c2)C[C@H](C)N1 [Compound 737, 6-[(3R,5S)-3,5-dimethylpiperazin-1-yl]-2-(7-fluoro-6-hydroxy-2-methylindazol-5-yl)-N-(2-hydroxyethyl)quinazoline-4-carboxamide]	100 to 1000	A (A represents <100 nM)
1000 to 10000	1000 to 10000	1000 to 10000	C[C@@H]1CN(c2ccc3nc(-c4cc5cn(C)nc5c(F)c4O)ncc3c2)C[C@H](C)N1 [Compound 743, 5-{6-[(3R,5S)-3,5-dimethylpiperazin-1-yl]quinazolin-2-yl}-7-fluoro-2-methylindazol-6-ol]	> 10000	C (C represents 1000-9999 nM)
< 100	< 100	< 100	C[C@@H]1CN(c2ccc3nc(-c4cc5cn(C)nc5c(F)c4O)ncc3c2)C[C@@H](C)N1 [Compound 745, 5-{6-[(3R,5R)-3,5-dimethylpiperazin-1-yl]quinazolin-2-yl}-7-fluoro-2-methylindazol-6-ol]	< 100	A (A represents <100 nM)
100 to 1000	100 to 1000	100 to 1000	CN[C@@H]1CCN(c2cc3c(Cl)cc(-c4cc5cn(C)nc5c(C)c4O)nc3cc2C)C1 [Compound 748, 5-{4-chloro-7-methyl-6-[(3R)-3-(methylamino)pyrrolidin-1-yl]quinolin-2-yl}-2,7-dimethylindazol-6-ol]	1000 to 10000	B (B represents 100-1000 nM)
100 to 1000	100 to 1000	< 100	CN[C@H]1CCN(c2cc3c(Cl)cc(-c4cc5cn(C)nc5c(C)c4O)nc3cc2C)C1 [Compound 749, 5-{4-chloro-7-methyl-6-[(3S)-3-(methylamino)pyrrolidin-1-yl]quinolin-2-yl}-2,7-dimethylindazol-6-ol]	100 to 1000	B (B represents 100-1000 nM)
100 to 1000	100 to 1000	< 100	CCN(CC)C1CCN(c2ccc3nc(-c4cc5cn(C)nc5c(F)c4O)ncc3c2)CC1 [Compound 756, 5-{6-[4-(diethylamino)piperidin-1-yl]quinazolin-2-yl}-7-fluoro-2-methylindazol-6-ol]	100 to 1000	B (B represents 100-1000 nM)
